Consider twelve compounds from patent US11230526B1, “Cylcoalkenyl derivatives useful as agonists of the GPR120 and/or GPR40 receptors” (Janssen Pharmaceutica NV, priority 2018, dated 2022).

The target in test [1] is T1, long form of human GPR120 (Homo sapiens, UniProt Q5NUL3).
T1 construct: host or cells: PathHunter CHO-K1 GPR120 β-Arrestin Cell Line
Put plainly: Human GPR120 DiscoveRx PathHunter Beta-Arrestin assay, Procedure β-arrestin A. It counts as cell-based. The source says:
Human GPR120 DiscoveRx PathHunter® Beta-Arrestin Assay Assay Principle:
The binding of an agonist (medium/long chain fatty acids or small molecule agonists) to the G-protein-coupled receptor GPR120 activates phospholipase C, leading to release of intracellular Ca^+2 through the generation of inositol 1,4,5-trisphosphate (InsP3 or IP3). GPR120 activation can also trigger intracellular signaling via recruitment of Beta-Arrestin. In the present method, agonist-induced activation of the human GPR120 receptor is monitored through the use of PathHunter® CHO-K1 GPR120 Beta-Arrestin Cell Line engineered by DiscoveRx, as detailed below. The cell lines are designed to co-express both the ProLink/Enzyme Donor (PK)-tagged GPCR and the Enzyme […] (EA)-tagged Beta-Arrestin fusion proteins. Upon GPR120 receptor stimulation/activation, the EA-tagged Beta-Arrestin portion is translocated to the tagged receptor, where the two enzyme fragments are brought within close proximity. Under these conditions, these fragments can interact and form an active Beta-gal enzyme complex through Enzyme Fragment Complementation (EFC). This active Beta-gal complex can enzymatically hydrolyse the substrate to produce a detectable light signal; therefore, activation as a function of agonist concentration can be expressed as an EC50 value to determine relative compound activities. This in vitro assay therefore serves to assess compound agonist activity of the GPR120.
In Procedure β-arrestin A, the cell used were PathHunter® CHO-K1 GPR120 β-Arrestin Cell Line, expressing the long form of human GPR120 (Genbank accession number NM_181745), with 3000 cells per well.
The selected CHO-K1 GPR120 β-Arrestin cells were cultured in Ham's F12 media supplemented with 10% fetal bovine serum (FBS), 1% Glutamine, 1×p/s, 800 μg/mL G418 and 300 μg/mL Hygromycin B (for selection). Cell stocks were maintained and grown in a sub-confluent state using standard cell culture procedures. The day before the experiment, the cells were harvested with non-enzymatic cell dissociation buffer and re-suspended in complete growth media at the desired concentration. A Corning 384-plate was then seeded with the proper number of cells in a volume of 25 μL, per well. The seeded plates were incubated overnight at 37° C.
On the day of the experiment, the Assay Buffer containing (a) HBSS with Ca^++ and Mg^++, (b) 20 mM HEPES, and (c) 0.1% BSA stabilizer (pH 7.4) was prepared. The growth medium was gently removed from the cell plates and 20 μL of Assay Buffer added to each well. The plate was then incubated at 37° C. for 60 min. Test compounds were serially diluted in Assay Buffer to desired concentrations (more particularly to one or more of the following μM concentrations: 25, 12.5, 6.25, 3.12, 1.56, 0.78, 0.39, 0.19, 0.10, 0.05, 0.02, 0.01). Five μL of compound dilution was then added to each well and the plate incubated at 37° C. for 90 min. The detection reagents were prepared according to the manufacture's instruction. Twelve μL of the detection reagents were added to each well and the plate incubated at room temperature for 60 min.
The plates were read on an EnVision instrument, using Protocol name: Luminescence, Plate type: 384 Costar, Measurement height: 3 mm, Measurement time: 1 s, Aperture: 384 Plate aperture. The % Activity relative to the positive control was calculated using the following equation:
The % Activity values were plotted versus the concentration of test compound and fitted to a sigmoidal dose-response curve with a Hill slope=1 (fixed value) using nonlinear regression with GraphPad Prism 5.0 to calculate the EC50 values. The Fitting Equation was: Y=Bottom+(Top-Bottom)/(1+10^((Log EC50−X)*HillSlope)), where X is the log of the concentration and Y is the response.

Test [2] addresses T2, Human GPR120 short form (Homo sapiens, UniProt Q5NUL3).
T2 construct: expressed in transfected cells
T2 sequence (Q5NUL3 1-361): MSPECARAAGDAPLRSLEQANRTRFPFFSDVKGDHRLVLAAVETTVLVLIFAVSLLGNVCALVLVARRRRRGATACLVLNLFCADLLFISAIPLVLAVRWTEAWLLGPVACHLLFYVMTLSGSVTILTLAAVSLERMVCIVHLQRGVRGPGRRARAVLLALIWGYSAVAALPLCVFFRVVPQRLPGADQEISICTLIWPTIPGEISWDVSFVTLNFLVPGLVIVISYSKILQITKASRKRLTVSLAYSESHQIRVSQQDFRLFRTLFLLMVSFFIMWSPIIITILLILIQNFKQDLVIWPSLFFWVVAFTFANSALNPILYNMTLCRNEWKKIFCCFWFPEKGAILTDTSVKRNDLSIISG
The experiment in a line: Human GPR120 calcium flux assay, Procedure Calcium B (4200 cells/well). It counts as cell-based. Put shortly: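 HEK293 cells stably expressing human GPR120 (NM_001195755.1), 4200 cells/well, starved 1 h and loaded with Fluo-4 NW plus probenecid. Ligand-evoked calcium flux read on FLIPR for 300 s after a 10 s baseline. RFU = Fmax−Fmin; EC50 from four-parameter concentration-response fit.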
For orientation: A change in cytosolic calcium serves as a functional read-out for many receptors and channels.

T1 sequence (Q5NUL3 1-377 isoform Q5NUL3-1): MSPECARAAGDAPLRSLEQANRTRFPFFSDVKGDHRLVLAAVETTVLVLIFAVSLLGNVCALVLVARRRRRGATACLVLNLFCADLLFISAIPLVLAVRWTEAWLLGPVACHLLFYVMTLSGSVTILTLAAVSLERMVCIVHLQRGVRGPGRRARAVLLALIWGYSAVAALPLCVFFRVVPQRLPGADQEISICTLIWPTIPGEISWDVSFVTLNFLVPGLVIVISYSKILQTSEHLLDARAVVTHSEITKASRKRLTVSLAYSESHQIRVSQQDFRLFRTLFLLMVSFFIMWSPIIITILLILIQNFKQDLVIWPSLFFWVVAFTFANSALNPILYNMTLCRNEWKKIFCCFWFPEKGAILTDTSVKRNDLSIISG
T1 sequence (P32121 whole entry partner): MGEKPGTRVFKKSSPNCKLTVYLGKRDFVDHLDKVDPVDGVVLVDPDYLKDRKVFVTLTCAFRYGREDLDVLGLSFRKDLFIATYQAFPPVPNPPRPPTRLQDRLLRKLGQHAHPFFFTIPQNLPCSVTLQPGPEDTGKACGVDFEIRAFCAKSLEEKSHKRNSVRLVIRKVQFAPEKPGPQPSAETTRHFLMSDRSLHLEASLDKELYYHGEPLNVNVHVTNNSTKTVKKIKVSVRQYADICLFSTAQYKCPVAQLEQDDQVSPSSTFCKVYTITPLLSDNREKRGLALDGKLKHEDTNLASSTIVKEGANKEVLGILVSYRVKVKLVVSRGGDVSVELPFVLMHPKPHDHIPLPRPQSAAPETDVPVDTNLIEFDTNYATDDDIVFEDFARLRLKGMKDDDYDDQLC

On to `Cc1c(CCC(=O)O)ccc(OCC2=C(c3ccccc3)CC(F)(F)C2)c1C` [Compound 194, 3-[4-[(4,4-difluoro-2-phenyl-cyclopenten-1-yl)methoxy]-2,3-dimethyl-phenyl]Propanoic Acid], for which the EC50 (as a rule, the concentration giving half of the maximal effect) in test [1] turned out to be 161 nM; in test [2], 36 nM.

On to `Cc1ccc(C2=C(COc3ccc(CCC(=O)O)cc3C)CC(F)(F)CC2)s1` [Compound 561, 3-[4-[[5,5-difluoro-2-(5-methyl-2-thienyl)cyclohexen-1-yl]methoxy]-3-methyl-phenyl]Propanoic Acid], for which the EC50 worked out at 120 nM in test [1] and 71 nM in test [2].

Turning to `Cc1c(CCC(=O)O)ccc(OCC2=C(c3cncs3)CCC(F)(F)C2)c1C` [Compound 547, 3-[4-[(5,5-difluoro-2-thiazol-5-yl-cyclohexen-1-yl)methoxy]-2,3-dimethyl-phenyl]Propanoic Acid], the half-maximal effective concentration (EC50) in test [1] turned out to be 1800 nM; in test [2], 388 nM.

For `COC1CCC(c2ccc(Cl)cc2)=C(COc2ccc(CCC(=O)O)c(C)c2C)C1` (stereo not drawn) [Compound 540, 3-[4-[[2-(4-chlorophenyl)-5-methoxy-cyclohexen-1-yl]methoxy]-2,3-dimethyl-phenyl]Propanoic Acid], the EC50 was found to be 222 nM in test [1] and 151 nM in test [2].

Regarding `Cc1cc(CCC(=O)O)ccc1OCC1=C(c2ccccc2)CCC(F)(F)C1` [Compound 538, 3-[4-[(5,5-difluoro-2-phenyl-cyclohexen-1-yl)methoxy]-3-methyl-phenyl]Propanoic Acid], the concentration for a half-maximal effect (EC50) in test [1] came out at 159 nM; in test [2], 89 nM.

Regarding `Cc1c(CCC(=O)O)ccc(OCC2=C(c3ccc(Cl)cc3)CC(C#N)C2)c1C` (stereo not drawn) [Compound 196, 3-[4-[[2-(4-chlorophenyl)-4-cyano-cyclopenten-1-yl]methoxy]-2,3-dimethyl-phenyl]Propanoic Acid], the EC50 in test [1] was found to be 996 nM; in test [2] it was 743 nM.

`Cc1ncc(C2=C(COc3c(F)cc(CCC(=O)O)cc3F)CC(F)(F)CC2)s1` [Compound 554, 3-[4-[[5,5-difluoro-2-(2-methylthiazol-5-yl)cyclohexen-1-yl]methoxy]-3,5-difluoro-phenyl]Propanoic Acid]: the EC50 is 1020 nM in test [1] and 727 nM in test [2].

Consider `Cc1cc(CCC(=O)O)ccc1OCC1=C(c2cccs2)CC(F)(F)C1` [Compound 202, 3-[4-[[4,4-difluoro-2-(2-thienyl)cyclopenten-1-yl]methoxy]-3-methyl-phenyl]Propanoic Acid], for which the half-maximal effective concentration (EC50) came to 303 nM in test [1] and 114 nM in test [2].

On to `Cc1cc(CCC(=O)O)ccc1OCC1=C(c2ccc(Cl)c(F)c2)CCC(F)(F)C1` [Compound 527, 3-[4-[[2-(4-chloro-3-fluoro-phenyl)-5,5-difluoro-cyclohexen-1-yl]methoxy]-3-methyl-phenyl]Propanoic Acid], for which the EC50 in test [1] was 498 nM; in test [2], 885 nM.

In the case of `Cc1c(CCC(=O)O)ccc(OCC2=C(c3ccc(F)c(F)c3)CC(F)(F)C2)c1C` [Compound 177, 3-[4-[[2-(3,4-difluorophenyl)-4,4-difluoro-cyclopenten-1-yl]methoxy]-2,3-dimethyl-phenyl]Propanoic Acid], the EC50 was determined as 73 nM in test [1] and 53 nM in test [2].

Turning to `Cc1c(CCC(=O)O)ccc(OCC2=C(c3cccc(F)c3)CC(F)(F)C2)c1C` [Compound 192, 3-[4-[[4,4-difluoro-2-(3-fluorophenyl)cyclopenten-1-yl]methoxy]-2,3-dimethyl-phenyl]Propanoic Acid], the EC50 in test [1] stood at 320 nM; in test [2], 62 nM.

For `COC1CC(COc2ccc(CCC(=O)O)c(C)c2C)=C(c2ccc(Cl)cc2)C1` (stereo not drawn) [Compound 189, 3-[4-[[2-(4-chlorophenyl)-4-methoxy-cyclopenten-1-yl]methoxy]-2,3-dimethyl-phenyl]Propanoic Acid], the EC50 amounted to 245 nM in test [1] and 63 nM in test [2].
